Measurements from patent EP4745135A1 (Gluetacs Therapeutics (Shanghai) Co., Ltd., priority 2023, dated 2025).
Like-named read-outs stand apart in the source and are kept apart here.

Key:
[1] = test system: Human multiple myeloma cell (MM.1S); assay: Tumor cell proliferation inhibition (CellTiter-Meiluncell luminescent cell viability assay); conditions: Homo sapiens, MM1.S, 96 h, read-out: Inhibitory activity (IC50, nM) on tumor cell proliferation, MM.1S
[2] = test system: Human non-small cell lung cancer cell line: NCI-H1975; assay: as above; conditions: NCI-H1975, 96 h, read-out: Inhibitory activity (IC50, nM) on tumor cell proliferation, H1975
Description: (§1) The tumor cells used herein were cultured in a cell culture medium listed in table 2 at 37°C in an incubator with 5% CO2. Prior to experimentation, all cell lines used were correctly identified by STR profiling, and tested negative for mycoplasma contamination using a mycoplasma detection kit through routine screenings.
(§2) The IC50 values of the compounds of the present disclosure (including the compounds in Table 1 and Examples) were determined using the CellTiter-Meiluncell Luminescent Cell Viability Assay Kit from Dalian Meilun Biotech Co., Ltd. The detailed procedure is as follows: Tumor cells were seeded in 96-well cell culture plates at the densities specified in Table 3. On the following day, the test compounds of the present disclosure were subjected to serial dilution. The dilution can be performed according to one of the following two methods: • (1) The first dilution method: The test compounds of the present disclosure (including the compounds in Table 1 and Examples) were subjected to 5-fold serial dilutions starting from a highest concentration of 2000 µM, resulting in a total of 9 concentrations from high to low (2000, 400, 80, 16, 3.2, 0.64, 0.128, 0.0256, 0.00512 µM). Subsequently, 0.5 µL of the test compound dilution was transferred into the 96-well plate containing the cells, with each well containing 100 µL of cell culture medium. […] Into the 96-well plate, the diluted test compounds and corresponding detection reagents were added, resulting in final test compound concentrations of 500 nM and 10 nM, respectively. The experimental procedure is described below using the diluted 2 µM test compound as an example.
(§3) 0.5 µL of the aforementioned diluted compound of the present disclosure (including the compounds in Table 1 and Examples) was added to the seeded cells in 100 µL of medium, yielding a final test compound concentration of 10 nM. After the cells were treated with the compounds of the present disclosure for a specified period, the cell viability assay reagent was added to the culture medium according to the kit's instructions to determine cell viability. […] All controls were treated using the same procedure as the compounds of the present disclosure. The growth inhibition curves for the compounds of the present disclosure were plotted using Prism GraphPad software, and the IC50 values were calculated therefrom.

[3] = test system: Human T lymphocytic leukemia cell line: Jurkat; assay: as above; conditions: 96 h, read-out: Inhibitory activity (IC50, nM) on tumor cell proliferation, Jurkat
GSPT1 = assay: Western blot, degradation of substrate protein in hPBMCs; type: cell-based, Human; conditions: Western blot, 24 hours of compound treatment, compounds tested at 50 nM and 500 nM (concentration for the table not stated)
[4] = test system: Human mantle cell lymphoma cell line: JEKO-1; assay: Tumor cell proliferation inhibition (CellTiter-Meiluncell luminescent cell viability assay); conditions: JeKo-1, 96 h, read-out: Inhibitory activity (IC50, nM) on tumor cell proliferation, JEKO-1
Description: as §1, §2, §3

[5] = target: T1, human Cereblon WT GST-tagged protein (Homo sapiens, UniProt Q96SW2); assay: CRBN-binding affinity, HTRF (CEREBLON BINDING kit)
T1 construct: purchased CISBIO 64BDCRBNPEH
T1 sequence (Q96SW2 whole entry): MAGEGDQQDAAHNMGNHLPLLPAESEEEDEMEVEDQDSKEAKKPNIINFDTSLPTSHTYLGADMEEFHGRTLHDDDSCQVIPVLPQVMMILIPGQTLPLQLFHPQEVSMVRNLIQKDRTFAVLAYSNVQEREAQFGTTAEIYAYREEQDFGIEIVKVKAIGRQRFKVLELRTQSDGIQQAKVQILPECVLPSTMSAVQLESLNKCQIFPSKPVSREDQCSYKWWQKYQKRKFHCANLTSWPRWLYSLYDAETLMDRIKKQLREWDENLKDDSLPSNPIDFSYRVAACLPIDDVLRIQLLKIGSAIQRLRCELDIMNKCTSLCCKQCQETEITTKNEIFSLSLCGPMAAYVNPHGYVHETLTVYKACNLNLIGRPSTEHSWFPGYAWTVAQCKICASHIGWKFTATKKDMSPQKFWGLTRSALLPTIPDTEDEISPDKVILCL

[6] = test system: Human gastric cancer cell line: MGC803; assay: Tumor cell proliferation inhibition (CellTiter-Meiluncell luminescent cell viability assay); conditions: MGC-803, read-out: Inhibitory activity (IC50, nM) on tumor cell proliferation, MGC803
Description: as §2, §3

[7] = test system: Human breast cancer cell (MCF-7); assay: as above; conditions: MCF7, 96 h, read-out: Inhibitory activity (IC50, nM) on tumor cell proliferation, MCF7
IKZF3 = target: T2, IKZF3 (Homo sapiens, UniProt Q96SW2+Q9UKT9); assay: Western blot, degradation of substrate protein in hPBMCs; type: cell-based; conditions: Western blot, 24 hours of compound treatment, compounds tested at 50 nM and 500 nM (concentration for the table not stated)
T2 construct: effects of the compounds of the present disclosure on the expression of target proteins in cells; endogenous in cells; host or cells: human PBMCs (Milecell Biotechnologies)
T2 sequence (Q9UKT9 whole entry): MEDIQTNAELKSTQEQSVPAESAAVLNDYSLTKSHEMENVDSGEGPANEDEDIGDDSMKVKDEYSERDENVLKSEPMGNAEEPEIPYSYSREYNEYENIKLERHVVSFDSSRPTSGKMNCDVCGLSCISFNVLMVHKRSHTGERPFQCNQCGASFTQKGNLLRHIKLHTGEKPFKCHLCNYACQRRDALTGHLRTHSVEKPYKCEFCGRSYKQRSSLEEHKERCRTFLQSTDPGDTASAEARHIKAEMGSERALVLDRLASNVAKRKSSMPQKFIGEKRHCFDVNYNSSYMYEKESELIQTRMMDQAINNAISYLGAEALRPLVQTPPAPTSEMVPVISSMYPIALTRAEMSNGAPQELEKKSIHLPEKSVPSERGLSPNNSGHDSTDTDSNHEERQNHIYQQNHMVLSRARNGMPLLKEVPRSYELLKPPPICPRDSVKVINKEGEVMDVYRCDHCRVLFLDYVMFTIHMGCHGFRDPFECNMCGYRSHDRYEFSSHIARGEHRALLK
T2 sequence (Q96SW2 whole entry): as the sequence (Q96SW2 whole entry) above
T2 sequence (Q16531 whole entry partner): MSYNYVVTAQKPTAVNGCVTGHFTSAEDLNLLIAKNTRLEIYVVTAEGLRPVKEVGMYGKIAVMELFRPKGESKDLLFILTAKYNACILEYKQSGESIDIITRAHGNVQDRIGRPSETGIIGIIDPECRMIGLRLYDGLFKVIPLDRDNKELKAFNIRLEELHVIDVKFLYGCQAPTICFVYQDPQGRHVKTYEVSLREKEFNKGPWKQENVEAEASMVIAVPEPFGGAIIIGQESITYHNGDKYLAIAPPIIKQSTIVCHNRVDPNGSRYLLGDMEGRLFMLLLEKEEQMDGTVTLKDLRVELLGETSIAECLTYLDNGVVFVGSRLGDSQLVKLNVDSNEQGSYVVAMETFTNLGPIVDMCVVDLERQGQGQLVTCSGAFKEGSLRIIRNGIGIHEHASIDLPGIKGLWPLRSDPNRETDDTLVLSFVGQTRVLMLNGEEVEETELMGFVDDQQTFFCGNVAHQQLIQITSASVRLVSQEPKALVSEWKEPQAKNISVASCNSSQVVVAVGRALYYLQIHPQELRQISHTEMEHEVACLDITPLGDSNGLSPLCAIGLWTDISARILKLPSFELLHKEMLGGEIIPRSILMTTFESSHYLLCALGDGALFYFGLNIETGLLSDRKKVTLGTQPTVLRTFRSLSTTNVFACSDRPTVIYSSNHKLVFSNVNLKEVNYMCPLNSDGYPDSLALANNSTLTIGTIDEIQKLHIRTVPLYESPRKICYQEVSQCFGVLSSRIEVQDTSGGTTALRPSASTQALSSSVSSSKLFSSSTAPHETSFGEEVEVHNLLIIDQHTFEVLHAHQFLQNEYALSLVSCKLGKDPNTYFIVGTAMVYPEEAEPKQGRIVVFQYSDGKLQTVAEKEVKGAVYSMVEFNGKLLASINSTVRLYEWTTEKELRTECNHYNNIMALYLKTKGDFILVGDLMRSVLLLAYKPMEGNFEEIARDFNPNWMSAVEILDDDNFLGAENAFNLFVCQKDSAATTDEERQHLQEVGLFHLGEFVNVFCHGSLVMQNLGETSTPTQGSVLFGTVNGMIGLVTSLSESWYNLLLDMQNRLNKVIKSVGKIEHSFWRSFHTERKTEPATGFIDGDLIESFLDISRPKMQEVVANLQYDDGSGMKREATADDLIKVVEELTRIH

WEE1 = target: T3, WEE1 (Homo sapiens, UniProt P30291+Q96SW2); assay: as above; type: cell-based; conditions: Western blot, 24 hours of compound treatment, compounds tested at 50 nM and 500 nM (concentration for the table not stated)
T3 construct: effects of the compounds of the present disclosure on the expression of target proteins in cells; endogenous in cells; host or cells: human PBMCs (Milecell Biotechnologies)
T3 sequence (P30291 whole entry): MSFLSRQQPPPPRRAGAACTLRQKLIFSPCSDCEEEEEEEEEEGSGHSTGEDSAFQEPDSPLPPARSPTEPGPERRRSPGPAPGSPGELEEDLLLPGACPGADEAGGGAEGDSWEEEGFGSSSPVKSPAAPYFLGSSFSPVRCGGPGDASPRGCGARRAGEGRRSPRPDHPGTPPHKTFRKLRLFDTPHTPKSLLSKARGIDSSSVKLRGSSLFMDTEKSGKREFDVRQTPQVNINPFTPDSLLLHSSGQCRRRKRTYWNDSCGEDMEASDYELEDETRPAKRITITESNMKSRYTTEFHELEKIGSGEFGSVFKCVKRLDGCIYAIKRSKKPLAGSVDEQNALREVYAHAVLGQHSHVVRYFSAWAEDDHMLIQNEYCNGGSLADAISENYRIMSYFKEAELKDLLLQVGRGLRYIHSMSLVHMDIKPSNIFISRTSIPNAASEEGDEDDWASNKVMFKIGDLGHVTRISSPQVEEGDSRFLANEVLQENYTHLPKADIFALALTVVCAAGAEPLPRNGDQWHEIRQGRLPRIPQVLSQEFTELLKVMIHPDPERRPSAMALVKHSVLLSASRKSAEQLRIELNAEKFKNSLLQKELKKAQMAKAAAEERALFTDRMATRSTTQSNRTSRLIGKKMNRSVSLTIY
T3 sequence (Q96SW2 whole entry): as the sequence (Q96SW2 whole entry) above
T3 sequence (Q16531 whole entry partner): as the sequence (Q16531 whole entry partner) above

IKZF2 = target: T4, IKZF2 (Homo sapiens, UniProt Q96SW2+Q9UKS7); assay: as above; type: cell-based; conditions: Western blot, 24 hours of compound treatment, compounds tested at 50 nM and 500 nM (concentration for the table not stated)
T4 construct: effects of the compounds of the present disclosure on the expression of target proteins in cells; endogenous in cells; host or cells: human PBMCs (Milecell Biotechnologies)
T4 sequence (Q9UKS7 whole entry): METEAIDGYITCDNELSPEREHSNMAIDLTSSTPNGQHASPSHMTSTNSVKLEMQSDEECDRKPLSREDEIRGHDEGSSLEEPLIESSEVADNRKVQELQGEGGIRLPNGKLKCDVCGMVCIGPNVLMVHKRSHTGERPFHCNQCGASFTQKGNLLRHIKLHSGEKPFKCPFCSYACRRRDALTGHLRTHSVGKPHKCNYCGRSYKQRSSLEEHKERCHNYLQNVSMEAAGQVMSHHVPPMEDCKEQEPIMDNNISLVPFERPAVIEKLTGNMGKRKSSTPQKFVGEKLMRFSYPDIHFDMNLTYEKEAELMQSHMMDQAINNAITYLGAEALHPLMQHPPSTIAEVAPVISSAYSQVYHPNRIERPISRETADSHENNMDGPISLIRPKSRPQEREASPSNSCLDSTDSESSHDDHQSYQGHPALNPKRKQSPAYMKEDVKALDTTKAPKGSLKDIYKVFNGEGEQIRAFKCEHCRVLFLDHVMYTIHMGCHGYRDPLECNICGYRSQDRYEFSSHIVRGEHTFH
T4 sequence (Q96SW2 whole entry): as the sequence (Q96SW2 whole entry) above
T4 sequence (Q16531 whole entry partner): as the sequence (Q16531 whole entry partner) above

CK1α = target: T5, CK1α (Homo sapiens, UniProt P48729+Q96SW2); assay: as above; type: cell-based; conditions: Western blot, 24 hours of compound treatment, compounds tested at 50 nM and 500 nM (concentration for the table not stated)
T5 construct: effects of the compounds of the present disclosure on the expression of target proteins in cells; endogenous in cells; host or cells: human PBMCs (Milecell Biotechnologies)
T5 sequence (P48729 whole entry): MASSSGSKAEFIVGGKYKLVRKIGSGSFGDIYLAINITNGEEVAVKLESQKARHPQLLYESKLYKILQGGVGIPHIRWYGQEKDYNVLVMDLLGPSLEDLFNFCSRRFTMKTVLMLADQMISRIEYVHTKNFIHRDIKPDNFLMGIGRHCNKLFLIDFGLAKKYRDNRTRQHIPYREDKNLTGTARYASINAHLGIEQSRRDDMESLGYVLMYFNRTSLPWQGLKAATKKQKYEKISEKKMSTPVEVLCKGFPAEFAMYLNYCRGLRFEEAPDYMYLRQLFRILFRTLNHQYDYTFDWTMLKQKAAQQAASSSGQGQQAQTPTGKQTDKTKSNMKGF
T5 sequence (Q96SW2 whole entry): as the sequence (Q96SW2 whole entry) above
T5 sequence (Q16531 whole entry partner): as the sequence (Q16531 whole entry partner) above

IKZF1 = target: T6, IKZF1 (Homo sapiens, UniProt Q13422+Q96SW2); assay: as above; type: cell-based; conditions: Western blot, 24 hours of compound treatment, compounds tested at 50 nM and 500 nM (concentration for the table not stated)
T6 construct: effects of the compounds of the present disclosure on the expression of target proteins in cells; endogenous in cells; host or cells: human PBMCs (Milecell Biotechnologies)
T6 sequence (Q13422 whole entry): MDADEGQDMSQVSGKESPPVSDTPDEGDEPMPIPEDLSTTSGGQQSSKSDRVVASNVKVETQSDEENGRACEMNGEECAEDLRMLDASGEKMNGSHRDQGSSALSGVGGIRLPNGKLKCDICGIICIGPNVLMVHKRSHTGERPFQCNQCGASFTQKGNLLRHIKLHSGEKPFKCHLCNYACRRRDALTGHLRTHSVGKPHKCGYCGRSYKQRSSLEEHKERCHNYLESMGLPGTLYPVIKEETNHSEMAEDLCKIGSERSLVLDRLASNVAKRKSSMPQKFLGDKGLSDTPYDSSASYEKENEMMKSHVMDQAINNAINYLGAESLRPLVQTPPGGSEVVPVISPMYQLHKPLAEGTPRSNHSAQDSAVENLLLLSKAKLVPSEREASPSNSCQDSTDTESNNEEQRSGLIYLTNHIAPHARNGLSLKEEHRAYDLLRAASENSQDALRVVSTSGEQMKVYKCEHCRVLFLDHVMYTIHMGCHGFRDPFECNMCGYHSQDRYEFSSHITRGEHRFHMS
T6 sequence (Q96SW2 whole entry): as the sequence (Q96SW2 whole entry) above
T6 sequence (Q16531 whole entry partner): as the sequence (Q16531 whole entry partner) above

[8] = CRBN binding, HTRF, 3 hours at room temperature; read-out: HTRF IC50

Row | IC50 [1] [nM] | IC50 [2] [nM] | IC50 [3] [nM] | IC50 [6] [nM] | IC50 [5, 8] [nM] | Structure (SMILES) | GSPT1 substrate protein remaining % (GSPT1) | IC50 [4] [nM] | IC50 ([5]; read-out: HTRF IC50; CRBN binding, HTRF, 3 hours at room temperature) [nM] | IC50 [7] [nM] | IKZF3 substrate protein remaining % (IKZF3) | Wee1 substrate protein remaining % (WEE1) | IKZF2 substrate protein remaining % (IKZF2) | CK1α substrate protein remaining % (CK1α) | IKZF 1 substrate protein remaining % (IKZF1)
1 | 100 to 500 | 500 to 1000 | 500 to 1000 |  | 500 to 1000 | Cc1ccc(Sc2ccccc2N2CCN(Cc3ccc4c(c3)C(=S)N(C3CCC(=O)NC3=O)C4)CC2)c(C)c1 (centres unmarked) [GT-05038, 3-(6-((4-(2-((2,4-dimethylphenyl)thio)phenyl)piperazin-1-yl)methyl)-1-thioxoisoindolin-2-yl)piperidine-2,6-dione] | A (0% ≤ substrate protein remaining % ≤ 80%) |  |  |  | A (0% ≤ substrate protein remaining % ≤ 80%) | B (80%< substrate protein remaining %≤ 100%) | A (0% ≤ substrate protein remaining % ≤ 80%) | B (80%< substrate protein remaining %≤ 100%) | A (0% ≤ substrate protein remaining % ≤ 80%)
2 | 10 to 50 | 50 to 100 | 50 to 100 | 100 to 500 | 100 to 500 | O=C1CCC(N2Cc3cc(CN4CCN(c5cccc6sccc56)CC4)ccc3C2=S)C(=O)N1 (centres unmarked) [GT-05088, 3-(5-((4-(benzo[b]thiophen-4-yl)piperazin-1-yl)methyl)-1-thioxoisoindolin-2-yl)piperidine-2,6-dione] | A (0% ≤ substrate protein remaining % ≤ 80%) | 10 to 50 |  | 100 to 500 | A (0% ≤ substrate protein remaining % ≤ 80%) | A (0% ≤ substrate protein remaining % ≤ 80%) | A (0% ≤ substrate protein remaining % ≤ 80%) | B (80%< substrate protein remaining %≤ 100%) | A (0% ≤ substrate protein remaining % ≤ 80%)
3 | 10 to 50 | 50 to 100 | 50 to 100 | 100 to 500 | 500 to 1000 | Cc1ccc(Sc2ccccc2N2CCN(Cc3ccc4c(c3)CN(C3CCC(=O)NC3=O)C4=S)CC2)c(C)c1 (centres unmarked) [GT-05092, 3-(5-((4-(2-((2,4-dimethylphenyl)thio)phenyl)piperazin-1-yl)methyl)-1-thioxoisoindolin-2-yl)piperidine-2,6-dione] | A (0% ≤ substrate protein remaining % ≤ 80%) | 10 to 50 |  | 100 to 500 | A (0% ≤ substrate protein remaining % ≤ 80%) | A (0% ≤ substrate protein remaining % ≤ 80%) | A (0% ≤ substrate protein remaining % ≤ 80%) | B (80%< substrate protein remaining %≤ 100%) | A (0% ≤ substrate protein remaining % ≤ 80%)
4 | < 5 | 100 to 500 | 100 to 500 | 50 to 100 | 500 to 1000 | O=C1CCC(N2Cc3cc(CN4CCN(C(c5ccccc5)c5ccccc5)CC4)ccc3C2=S)C(=O)N1 (centres unmarked) [GT-05104, 3-(5-((4-benzhydrylpiperazin-1-yl)methyl)-1-thioxoisoindolin-2-yl)piperidine-2,6-dione] | A (0% ≤ substrate protein remaining % ≤ 80%) | 100 to 500 |  |  | B (80%< substrate protein remaining %≤ 100%) | A (0% ≤ substrate protein remaining % ≤ 80%) | B (80%< substrate protein remaining %≤ 100%) | B (80%< substrate protein remaining %≤ 100%) | B (80%< substrate protein remaining %≤ 100%)
5 | < 5 | 5 to 10 | < 5 | 10 to 50 | 500 to 1000 | O=C1CCC(N2Cc3cc(CN4CCC(Nc5ccccc5-c5ccc(Cl)cc5)CC4)ccc3C2=S)C(=O)N1 (centres unmarked) [GT-05109, 3-(5-((4-((4'-chloro-[1,1'-biphenyl]-2-yl)amino)piperidin-1-yl)methyl)-1-thioxoisoindolin-2-yl)piperidine-2,6-dione] | A (0% ≤ substrate protein remaining % ≤ 80%) | 5 to 10 |  | 10 to 50 | A (0% ≤ substrate protein remaining % ≤ 80%) | A (0% ≤ substrate protein remaining % ≤ 80%) | A (0% ≤ substrate protein remaining % ≤ 80%) | A (0% ≤ substrate protein remaining % ≤ 80%) | A (0% ≤ substrate protein remaining % ≤ 80%)

Row | Structure (SMILES) | IC50 [1] [nM] | IC50 [2] [nM] | IC50 [3] [nM] | IC50 [6] [nM] | IC50 [5, 8] [nM] | GSPT1 substrate protein remaining % (GSPT1) | IC50 [4] [nM] | IC50 ([5]; read-out: HTRF IC50; CRBN binding, HTRF, 3 hours at room temperature) [nM] | IC50 [7] [nM] | IKZF3 substrate protein remaining % (IKZF3) | Wee1 substrate protein remaining % (WEE1) | IKZF2 substrate protein remaining % (IKZF2) | CK1α substrate protein remaining % (CK1α) | IKZF 1 substrate protein remaining % (IKZF1)
6 | O=C1CCC(N2Cc3cc(CN4CCC(N(c5ccccc5)c5ccccc5)CC4)ccc3C2=S)C(=O)N1 (centres unmarked) | < 5 | 5 to 10 | < 5 | 5 to 10 |  | A (0% ≤ substrate protein remaining % ≤ 80%) | < 5 | 100 to 500 | 10 to 50 | A (0% ≤ substrate protein remaining % ≤ 80%) | A (0% ≤ substrate protein remaining % ≤ 80%) | A (0% ≤ substrate protein remaining % ≤ 80%) | B (80%< substrate protein remaining %≤ 100%) | A (0% ≤ substrate protein remaining % ≤ 80%)
7 | Cc1ccc(C2=CCN(Cc3ccc4c(c3)CN(C3CCC(=O)NC3=O)C4=S)CC2)s1 (centres unmarked) [GT-05111, 3-(5-((4-(5-methylthiophen-2-yl)-3,6-dihydropyridin-1(2H)-yl)methyl)-1-thioxoisoindolin-2-yl)piperidine-2,6-dione] | 10 to 50 | 50 to 100 | 50 to 100 | 100 to 500 | 100 to 500 | A (0% ≤ substrate protein remaining % ≤ 80%) | 50 to 100 |  | 100 to 500 | A (0% ≤ substrate protein remaining % ≤ 80%) | A (0% ≤ substrate protein remaining % ≤ 80%) | A (0% ≤ substrate protein remaining % ≤ 80%) | A (0% ≤ substrate protein remaining % ≤ 80%) | A (0% ≤ substrate protein remaining % ≤ 80%)
8 | Cc1cscc1C1=CCN(Cc2ccc3c(c2)CN(C2CCC(=O)NC2=O)C3=S)CC1 (centres unmarked) [GT-05145, 3-(5-((4-(4-methylthiophen-3-yl)-3,6-dihydropyridin-1(2H)-yl)methyl)-1-thioxoisoindolin-2-yl)piperidine-2,6-dione] | < 5 | 5 to 10 | < 5 | 10 to 50 | < 100 | A (0% ≤ substrate protein remaining % ≤ 80%) | < 5 |  | 10 to 50 | A (0% ≤ substrate protein remaining % ≤ 80%) | A (0% ≤ substrate protein remaining % ≤ 80%) | A (0% ≤ substrate protein remaining % ≤ 80%) | A (0% ≤ substrate protein remaining % ≤ 80%) | A (0% ≤ substrate protein remaining % ≤ 80%)
9 | O=C1CCC(N2Cc3cc(CN4CC=C(c5ccco5)CC4)ccc3C2=S)C(=O)N1 (centres unmarked) [GT-05147, 3-(5-((4-(furan-2-yl)-3,6-dihydropyridin-1(2H)-yl)methyl)-1-thioxoisoindolin-2-yl)piperidine-2,6-dione] | 10 to 50 |  | 100 to 500 |  | < 100 | A (0% ≤ substrate protein remaining % ≤ 80%) | 100 to 500 |  |  | A (0% ≤ substrate protein remaining % ≤ 80%) | A (0% ≤ substrate protein remaining % ≤ 80%) | A (0% ≤ substrate protein remaining % ≤ 80%) | B (80%< substrate protein remaining %≤ 100%) | A (0% ≤ substrate protein remaining % ≤ 80%)
